# Active and inactive are the calls of the source. The rule behind the calls is not given here.
# What was measured:
# [1] = molecular target: T1, Tyrosine-protein kinase Lck (Homo sapiens, UniProt P06239); assay: Inhibition of LCK (unknown origin) assessed as remaining activity at […] x 10^-6 M after 120 mins in presence of 33P-ATP (reference value: […]% to […]%)
# Target sequence in this assay (P06239 2-509 limits assumed): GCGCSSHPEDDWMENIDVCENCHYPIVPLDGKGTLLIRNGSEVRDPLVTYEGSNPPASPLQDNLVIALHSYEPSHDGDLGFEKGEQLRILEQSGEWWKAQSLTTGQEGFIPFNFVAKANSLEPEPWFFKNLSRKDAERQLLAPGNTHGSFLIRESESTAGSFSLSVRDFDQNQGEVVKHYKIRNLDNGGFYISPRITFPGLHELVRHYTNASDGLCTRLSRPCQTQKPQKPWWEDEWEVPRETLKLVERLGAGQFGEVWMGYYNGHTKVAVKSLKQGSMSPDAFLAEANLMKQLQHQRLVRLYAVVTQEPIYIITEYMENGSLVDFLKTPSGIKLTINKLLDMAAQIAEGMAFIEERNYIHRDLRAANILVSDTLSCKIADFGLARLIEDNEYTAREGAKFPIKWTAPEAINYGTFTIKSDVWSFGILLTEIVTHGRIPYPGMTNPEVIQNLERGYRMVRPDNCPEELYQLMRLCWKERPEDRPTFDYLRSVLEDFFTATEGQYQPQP
# RAW264.7 [2] = assay: Inhibition of LPS-induced NO production in mouse RAW264.7 cells after 24 hrs by Griess assay; assay type: functional, cell-based; conditions: RAW264.7, 24 h
# [3] = molecular target: T1, Tyrosine-protein kinase Lck; assay: Inhibition of LCK (unknown origin) assessed as remaining activity at 3.7 x 10^-7 M after 120 mins in presence of 33P-ATP (reference value: […]% to […]%); conditions: at 0.37 µM
# Target sequence in this assay (P06239 2-509 limits assumed): as above
# [4] = molecular target: T1, Tyrosine-protein kinase Lck; assay: Inhibition of LCK (unknown origin) after 120 mins in presence of 33P-ATP
# Target sequence in this assay (P06239 whole entry): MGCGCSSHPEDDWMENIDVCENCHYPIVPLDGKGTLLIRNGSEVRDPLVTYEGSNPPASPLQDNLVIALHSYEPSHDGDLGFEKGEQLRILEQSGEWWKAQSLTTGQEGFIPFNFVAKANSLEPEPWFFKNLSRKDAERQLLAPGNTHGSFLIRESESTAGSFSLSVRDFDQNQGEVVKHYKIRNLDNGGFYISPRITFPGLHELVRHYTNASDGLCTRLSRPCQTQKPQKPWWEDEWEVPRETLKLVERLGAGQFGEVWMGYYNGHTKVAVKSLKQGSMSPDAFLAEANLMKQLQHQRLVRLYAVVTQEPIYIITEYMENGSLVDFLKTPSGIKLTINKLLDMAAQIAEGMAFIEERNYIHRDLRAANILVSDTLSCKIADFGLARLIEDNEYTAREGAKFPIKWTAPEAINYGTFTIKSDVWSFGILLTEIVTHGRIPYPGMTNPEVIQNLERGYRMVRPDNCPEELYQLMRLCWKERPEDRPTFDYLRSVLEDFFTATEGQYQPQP
# [5] = (§1) Cytotoxicity against mouse RAW264.7 cells after 4 hrs by MTT assay; assay type: cell-based; conditions: mouse, RAW264.7 cells
# [6] = molecular target: T1, Tyrosine-protein kinase Lck; assay: Inhibition of LCK (unknown origin) assessed as remaining activity at 3.33 x 10^-6 M after 120 mins in presence of 33P-ATP (reference value: […]% to […]%); conditions: at 3.33 µM
# Target sequence in this assay (P06239 2-509 limits assumed): as the sequence (P06239 2-509 limits assumed) above
# [7] = molecular target: T1, Tyrosine-protein kinase Lck; assay: Inhibition of LCK (unknown origin) assessed as remaining activity at 3 x 10^-5 M after 120 mins in presence of 33P-ATP (reference value: […]% to […]%); conditions: at 30 µM
# Target sequence in this assay (P06239 2-509 limits assumed): as above
# [8] = molecular target: T1, Tyrosine-protein kinase Lck; assay: Inhibition of LCK (unknown origin) assessed as remaining activity at 1 x 10^-5 M after 120 mins in presence of 33P-ATP (reference value: […]% to […]%); conditions: at 10 µM
# Target sequence in this assay (P06239 2-509 limits assumed): as above
# RAW264.7 [9] = assay: Antiinflammatory activity in mouse RAW264.7 cells assessed as inhibition of LPS-induced PGE2 production after 24 hrs by enzyme immunoassay; assay type: functional, cell-based; conditions: RAW264.7, 24 h
# RAW264.7 [10] = assay: Potency index, ratio of L-NIL IC50 to compound IC50 for inhibition of LPS-induced NO production in mouse RAW264.7 cells; assay type: functional
# [11] = molecular target: Macrophage colony-stimulating factor 1 receptor (Homo sapiens, UniProt P07333); assay: Inhibition of FMS (unknown origin) after 120 mins in presence of 33P-ATP
# Sequence of Macrophage colony-stimulating factor 1 receptor (P07333 whole entry): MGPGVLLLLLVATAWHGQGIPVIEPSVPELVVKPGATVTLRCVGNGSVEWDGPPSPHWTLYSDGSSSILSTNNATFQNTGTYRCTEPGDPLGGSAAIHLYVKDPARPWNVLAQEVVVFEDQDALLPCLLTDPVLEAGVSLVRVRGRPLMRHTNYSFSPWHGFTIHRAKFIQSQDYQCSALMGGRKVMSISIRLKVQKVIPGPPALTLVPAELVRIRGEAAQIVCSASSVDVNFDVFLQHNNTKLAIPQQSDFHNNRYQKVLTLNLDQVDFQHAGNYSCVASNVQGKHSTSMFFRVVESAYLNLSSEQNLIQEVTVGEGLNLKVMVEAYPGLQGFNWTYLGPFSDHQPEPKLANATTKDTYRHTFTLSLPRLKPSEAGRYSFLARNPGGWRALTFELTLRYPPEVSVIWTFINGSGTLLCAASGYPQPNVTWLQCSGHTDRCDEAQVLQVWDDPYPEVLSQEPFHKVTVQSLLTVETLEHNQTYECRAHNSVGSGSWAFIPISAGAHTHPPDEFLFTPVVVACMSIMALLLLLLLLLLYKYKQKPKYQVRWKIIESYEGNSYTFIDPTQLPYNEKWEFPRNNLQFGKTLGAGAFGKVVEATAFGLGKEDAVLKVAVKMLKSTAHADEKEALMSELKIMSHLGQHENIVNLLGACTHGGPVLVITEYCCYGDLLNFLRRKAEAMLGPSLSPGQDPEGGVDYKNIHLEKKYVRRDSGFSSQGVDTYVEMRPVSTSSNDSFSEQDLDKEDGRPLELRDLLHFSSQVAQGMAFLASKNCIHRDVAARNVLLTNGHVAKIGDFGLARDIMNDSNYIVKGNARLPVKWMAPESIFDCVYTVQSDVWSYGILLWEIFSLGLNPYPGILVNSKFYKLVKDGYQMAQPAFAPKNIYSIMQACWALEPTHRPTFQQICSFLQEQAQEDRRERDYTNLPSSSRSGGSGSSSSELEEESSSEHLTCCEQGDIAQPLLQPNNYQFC
# RAW264.7 [12] = assay: Antiinflammatory activity against mouse RAW264.7 cells assessed as inhibition of LPS-induced iNOS protein expression at 3 to 12 uM after 24 hrs by Western blot analysis; assay type: functional, cell-based
# RAW264.7 [13] = assay: Antiinflammatory activity against mouse RAW264.7 cells assessed as inhibition of LPS induced COX-2 protein expression at 3 to 12 uM after 24 hrs by Western blot analysis; assay type: functional, cell-based
# [14] = molecular target: High affinity nerve growth factor receptor (Homo sapiens, UniProt P04629)
# Sequence of High affinity nerve growth factor receptor (P04629 whole entry): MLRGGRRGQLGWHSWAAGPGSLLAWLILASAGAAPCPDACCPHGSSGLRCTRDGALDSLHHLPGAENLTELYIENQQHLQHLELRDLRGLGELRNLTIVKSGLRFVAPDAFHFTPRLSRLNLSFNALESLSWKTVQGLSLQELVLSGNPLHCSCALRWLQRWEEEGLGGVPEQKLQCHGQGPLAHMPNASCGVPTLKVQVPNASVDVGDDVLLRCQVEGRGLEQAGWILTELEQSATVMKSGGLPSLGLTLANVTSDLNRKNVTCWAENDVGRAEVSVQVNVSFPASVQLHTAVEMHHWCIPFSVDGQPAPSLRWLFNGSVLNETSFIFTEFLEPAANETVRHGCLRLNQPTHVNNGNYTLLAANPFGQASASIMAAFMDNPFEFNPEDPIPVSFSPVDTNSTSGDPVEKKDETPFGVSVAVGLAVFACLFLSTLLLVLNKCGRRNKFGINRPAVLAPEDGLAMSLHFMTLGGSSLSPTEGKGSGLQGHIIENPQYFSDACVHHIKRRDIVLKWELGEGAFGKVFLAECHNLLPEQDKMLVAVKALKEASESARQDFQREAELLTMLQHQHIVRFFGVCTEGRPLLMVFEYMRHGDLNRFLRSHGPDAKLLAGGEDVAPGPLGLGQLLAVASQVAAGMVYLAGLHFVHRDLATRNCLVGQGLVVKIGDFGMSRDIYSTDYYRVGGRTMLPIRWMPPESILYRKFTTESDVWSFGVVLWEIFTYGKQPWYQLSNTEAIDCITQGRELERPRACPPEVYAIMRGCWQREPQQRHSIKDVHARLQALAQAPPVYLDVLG
# Description: Inhibition of TRKA (unknown origin)
# RAW264.7 [15] = assay: as §1; assay type: cell-based; conditions: Mus musculus, RAW264.7, 4 h
# [16] = molecular target: Tyrosine-protein kinase Lyn (Homo sapiens, UniProt P07948)
# Sequence of Tyrosine-protein kinase Lyn (P07948 whole entry): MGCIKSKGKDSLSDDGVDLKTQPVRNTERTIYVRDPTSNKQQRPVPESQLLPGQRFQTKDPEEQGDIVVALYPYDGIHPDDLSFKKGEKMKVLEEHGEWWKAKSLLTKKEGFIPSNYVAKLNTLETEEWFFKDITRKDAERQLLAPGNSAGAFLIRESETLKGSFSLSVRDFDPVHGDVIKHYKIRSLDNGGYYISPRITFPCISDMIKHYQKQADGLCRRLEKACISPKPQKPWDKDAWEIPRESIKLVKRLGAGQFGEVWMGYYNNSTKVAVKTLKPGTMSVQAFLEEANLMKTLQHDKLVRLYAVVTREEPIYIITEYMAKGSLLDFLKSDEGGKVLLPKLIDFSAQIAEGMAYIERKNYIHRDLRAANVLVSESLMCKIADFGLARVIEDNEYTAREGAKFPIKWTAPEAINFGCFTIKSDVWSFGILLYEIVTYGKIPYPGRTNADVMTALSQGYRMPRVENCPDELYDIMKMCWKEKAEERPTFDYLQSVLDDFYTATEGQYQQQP
# Description: Inhibition of LYN (unknown origin)
# [17] = molecular target: Homeodomain-interacting protein kinase 1 (Homo sapiens, UniProt Q86Z02); assay: Inhibition of HIPK1 (unknown origin)
# Sequence of Homeodomain-interacting protein kinase 1 (Q86Z02 whole entry): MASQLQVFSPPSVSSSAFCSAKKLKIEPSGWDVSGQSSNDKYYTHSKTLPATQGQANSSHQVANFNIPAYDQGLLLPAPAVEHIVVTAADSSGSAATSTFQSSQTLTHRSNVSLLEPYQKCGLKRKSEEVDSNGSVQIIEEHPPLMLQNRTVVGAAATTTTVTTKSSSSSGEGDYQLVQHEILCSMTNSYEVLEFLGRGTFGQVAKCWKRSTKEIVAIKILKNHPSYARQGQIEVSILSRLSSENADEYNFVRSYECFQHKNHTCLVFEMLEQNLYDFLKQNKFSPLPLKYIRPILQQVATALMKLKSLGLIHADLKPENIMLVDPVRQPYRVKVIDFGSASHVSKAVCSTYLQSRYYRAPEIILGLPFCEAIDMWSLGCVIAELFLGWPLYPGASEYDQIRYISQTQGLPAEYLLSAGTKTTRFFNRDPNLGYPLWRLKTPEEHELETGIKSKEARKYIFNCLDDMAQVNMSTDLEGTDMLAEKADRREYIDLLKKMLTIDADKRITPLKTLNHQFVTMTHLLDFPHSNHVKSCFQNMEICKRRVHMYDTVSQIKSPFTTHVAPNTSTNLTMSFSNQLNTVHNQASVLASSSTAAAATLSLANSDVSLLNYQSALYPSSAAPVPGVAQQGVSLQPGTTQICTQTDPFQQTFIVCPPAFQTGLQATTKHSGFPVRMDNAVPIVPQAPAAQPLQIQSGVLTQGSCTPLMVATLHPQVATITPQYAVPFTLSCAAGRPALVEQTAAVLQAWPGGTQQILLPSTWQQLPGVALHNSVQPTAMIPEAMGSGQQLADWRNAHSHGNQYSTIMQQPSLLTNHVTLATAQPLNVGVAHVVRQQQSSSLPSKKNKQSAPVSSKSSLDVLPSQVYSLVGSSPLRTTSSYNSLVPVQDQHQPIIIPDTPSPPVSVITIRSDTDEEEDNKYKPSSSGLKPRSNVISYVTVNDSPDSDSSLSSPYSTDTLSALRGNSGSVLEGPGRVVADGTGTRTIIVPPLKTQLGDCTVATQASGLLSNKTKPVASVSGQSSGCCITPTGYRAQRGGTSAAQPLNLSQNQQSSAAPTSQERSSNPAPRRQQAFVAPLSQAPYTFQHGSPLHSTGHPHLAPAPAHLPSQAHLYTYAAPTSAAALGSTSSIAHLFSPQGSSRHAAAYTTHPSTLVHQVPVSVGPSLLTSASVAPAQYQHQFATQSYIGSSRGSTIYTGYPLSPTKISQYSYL
Compound,Activity [1],Activity [3],IC50 [4],Activity [6],Activity [7],Activity [8],IC50 [11],IC50 [17],IC50 (RAW264.7 [2]),IC80 at 4 h [5],IC50 (RAW264.7 [9]),Ratio IC50 (RAW264.7 [10]),inhibition (RAW264.7 [12]),inhibition (RAW264.7 [13]),IC50 [14],IC50 (RAW264.7 [15]),IC50 [16]
COc1cc(C)ccc1Oc1nc(Nc2ccc(N3CCOCC3)cc2)ncc1/N=C/c1cc(Cl)cc(Cl)c1,26.7 to 26.9%,35.8 to 36.1%,6.5 nM,32.8 to 33.6%,38.9 to 40.7%,37.1%,,,> 1000 nM,987 nM,,,,,,,
COc1cc(C)ccc1Oc1nc(Nc2ccc(N3CCOCC3)cc2)ncc1/N=C/c1cccc(Cl)c1,19.6 to 23.2%,32.6 to 35.6%,62 nM,15.3 to 16.8%,28.6 to 36.9%,11.3 to 14.9%,,,> 1000 nM,> 1000 nM,,,,,,,
C/C(=N/N)NCCCC[C@H](N)C(=O)O,,,,,,,,,28300 nM,,,,,,,,
COc1ccc(Oc2nc(Nc3ccc(N4CCOCC4)cc3)ncc2/N=C/c2cc(OC)cc(OC)c2)cc1,37.8 to 39.9%,53.2%,22 nM,30.3 to 32.9%,44.8 to 48.5%,27.4 to 28.3%,4.6 nM,,10300 nM,> 12000 nM,5220 nM,>2.5,Active,inactive,,,
COc1cc(NC(=O)Nc2cnc(Nc3ccc(N4CCOCC4)cc3)nc2Oc2ccc(C)cc2OC)cc(OC)c1,,,502 nM,,,,,,> 80000 nM,,,,,,8540 nM,> 80000 nM,4200 nM
CS(=O)(=O)Nc1ccc([N+](=O)[O-])cc1OC1CCCCC1 [NS-398],,,,,,,,,,,7.23 nM,,,,,,
COc1cc(/C=N/c2cnc(Nc3ccc(N4CCOCC4)cc3)nc2Oc2ccc(F)cc2)cc(OC)c1,62.5 to 64.3%,76.7 to 83.1%,3170 nM,42.7 to 47.8%,65.3 to 69.2%,39.9 to 41%,21 nM,,,,,,,,,,
COc1cc(/C=N/c2cnc(Nc3ccc(N4CCOCC4)cc3)nc2Oc2ccc(C(F)(F)F)cc2)cc(OC)c1,61.8 to 72.5%,83.1 to 91.7%,12100 nM,58.4 to 60%,49.4 to 59.3%,43.8 to 52.2%,14 nM,,,,,,,,,,
COc1cc(C)ccc1Oc1nc(Nc2ccc(N3CCOCC3)cc2)ncc1/N=C/c1cccc(OC(C)C)c1,27.6 to 29.2%,37.5 to 37.9%,39 nM,20 to 24.3%,12.4 to 16.2%,19.8 to 20.8%,,,> 5000 nM,> 6000 nM,,,,,,,
COc1cc(C)ccc1Oc1nc(Nc2ccc(N3CCOCC3)cc2)ncc1/N=C/c1ccccc1Cl,26.9 to 29.3%,42.5 to 42.8%,225 nM,13.4 to 15.1%,6.29 to 7.37%,11.3 to 11.5%,,,> 1000 nM,> 1000 nM,,,,,,,
COc1ccc(OC)c(/C=N/c2cnc(Nc3ccc(N4CCOCC4)cc3)nc2Oc2ccc(C)cc2OC)c1,19.9 to 21.8%,38.7 to 38.9%,110 nM,12.8 to 13.1%,8.37 to 10.1%,12.5 to 14.4%,,,> 1000 nM,> 1000 nM,,,,,,,
COc1cc(/C=N/c2cnc(Nc3ccc(N4CCOCC4)cc3)nc2Oc2ccc(C)cc2OC)cc(OC)c1,21.3 to 26.9%,28.8 to 37.5%,106 nM,10.3 to 12.6%,4.38 to 7.22%,7.1 to 8.37%,883 nM,,> 1000 nM,> 1000 nM,,,,,,,
COc1cc(C)ccc1Oc1nc(Nc2ccc(N3CCOCC3)cc2)ncc1/N=C/c1cccc(OC(F)(F)F)c1,26.8 to 27.9%,39.2 to 39.8%,33.5 nM,41.1 to 43.7%,41.7 to 50.1%,49 to 54.7%,,,> 20000 nM,< 5000 nM,,,,,,,
Cn1cc(C2=C(c3cn(CCCSC(=N)N)c4ccccc34)C(=O)NC2=O)c2ccccc21,,,,,,,,0.367 nM,,,,,,,,,
COc1cc(C)ccc1Oc1nc(Nc2ccc(N3CCOCC3)cc2)ncc1/N=C/c1cc(C(F)(F)F)cc(C(F)(F)F)c1,19.2 to 20.1%,39.7 to 40.7%,6 nM,24.7 to 27.4%,24.1 to 28.5%,55.5 to 56.8%,,,,,,,,,,,
COc1cc(C)ccc1Oc1nc(Nc2ccc(N3CCOCC3)cc2)ncc1/N=C/c1ccc(Cl)cc1,19.1%,38.2%,54 nM,14.7%,16.8%,10.6%,,,> 5000 nM,> 6000 nM,,,,,,,

# The next lines start with results.
Activity [1],Activity [3],IC50 [4],Activity [6],Activity [7],Activity [8],IC50 [11],IC50 [17],Compound,IC50 (RAW264.7 [2]),IC80 at 4 h [5],IC50 (RAW264.7 [9]),Ratio IC50 (RAW264.7 [10]),inhibition (RAW264.7 [12]),inhibition (RAW264.7 [13]),IC50 [14],IC50 (RAW264.7 [15]),IC50 [16]
98 to 102%,96.3 to 102%,> 100000 nM,96.5 to 99.7%,90.7 to 95.4%,92.4 to 97.2%,,,COc1ccc(NC(=O)Nc2cnc(Nc3cc(OC)cc(OC)c3)nc2Oc2ccc(C)cc2OC)cc1,,,,,,,,,
96 to 98%,95.3 to 99.2%,> 100000 nM,91 to 91.3%,83.5 to 89.8%,89.7 to 95.1%,,,COc1cc(C)ccc1Oc1nc(Nc2ccc(N3CCOCC3)cc2)ncc1NC(=O)Nc1cc(C(F)(F)F)cc(C(F)(F)F)c1,,,,,,,,,
20 to 20.2%,43.1 to 46.1%,312 nM,11.2 to 11.3%,2.49 to 2.9%,7.08 to 7.66%,,,COc1cc(C)ccc1Oc1nc(Nc2ccc(N3CCOCC3)cc2)ncc1NCc1ccc(Cl)cc1,,,,,,,,,
83.5 to 91.3%,92.7 to 92.9%,22100 nM,68.8 to 76.6%,44.9 to 45.8%,61.3 to 65.9%,,,COc1cc(C)ccc1Oc1nc(Nc2ccc(N3CCOCC3)cc2)ncc1NCc1cccc(OC(F)(F)F)c1,,,,,,,,,
89.3 to 89.9%,96 to 100%,> 100000 nM,83.8 to 90.7%,74.2 to 74.8%,78.1 to 84.5%,,,COc1cc(NC(=O)Nc2cnc(Nc3ccc(N4CCOCC4)cc3)nc2Oc2ccc(C(F)(F)F)cc2)cc(OC)c1,,,,,,,,,
52.6 to 55.2%,74.3 to 74.7%,1860 nM,34.8 to 36.1%,24 to 26.5%,25.4 to 28.1%,8.6 nM,,COc1cc(/C=N/c2cnc(Nc3ccc(N4CCOCC4)cc3)nc2Oc2cccc(OC)c2)cc(OC)c1,,,,,,,,,
94 to 95.5%,93.7 to 96%,58400 nM,85.2 to 88.2%,61.5 to 61.7%,72.6 to 81.8%,,,COc1cc(Nc2ncc(NC(=O)Nc3c(Cl)cccc3Cl)c(Oc3ccc(C)cc3OC)n2)cc(OC)c1,,,,,,,,,
84 to 87.5%,83.2 to 90.3%,71100 nM,77.8 to 81.3%,52.5 to 61.6%,68.9 to 70.1%,,,COc1cc(NC(=O)Nc2cnc(Nc3ccc(N4CCOCC4)cc3)nc2Oc2ccc(F)cc2)cc(OC)c1,,,,,,,,,
86.8 to 89.4%,93.2 to 97.7%,17400 nM,75.6 to 81.8%,34.8 to 38.1%,58.3 to 62.7%,,,COc1cc(C)ccc1Oc1nc(Nc2ccc(N3CCOCC3)cc2)ncc1NC(=O)Nc1c(Cl)cccc1Cl,,,,,,,,,
82.2 to 82.9%,97.2 to 97.4%,5480 nM,54.2 to 56%,35.9 to 36.2%,33.8 to 33.9%,,,COc1ccccc1NC(=O)Nc1cnc(Nc2ccc(N3CCOCC3)cc2)nc1Oc1ccc(C)cc1OC,,,,,,,,,
86.7 to 89%,99.1 to 99.3%,10300 nM,67.3 to 72.8%,39 to 39.6%,46.5 to 47%,,,COc1cc(OC)cc(C(=O)Nc2cnc(Nc3ccc(N4CCOCC4)cc3)nc2Oc2ccc(C)cc2OC)c1,,,,,,,,,
59.5 to 61.6%,84.9 to 85.4%,3300 nM,45 to 47.1%,21.3 to 22.5%,43.7 to 45.1%,,,COc1cc(C)ccc1Oc1nc(Nc2ccc(N3CCOCC3)cc2)ncc1NCc1ccc(OC(F)(F)F)cc1,,,,,,,,,
88.1 to 91.2%,104%,11600 nM,66.6 to 71%,41.1 to 41.7%,55.1 to 58.1%,,,COc1cc(C)ccc1Oc1nc(Nc2ccc(N3CCOCC3)cc2)ncc1NCc1cc(C(F)(F)F)cc(C(F)(F)F)c1,,,,,,,,,
64.7 to 71%,78.7 to 86.2%,7970 nM,57.6 to 66.5%,62.1 to 63.2%,42.1 to 49.3%,,,COc1cc(NC(=O)Nc2cnc(Nc3ccc(N4CCOCC4)cc3)nc2Oc2cccc(OC)c2)cc(OC)c1,,,,,,,,,
90.9 to 97.7%,98.6 to 101%,> 100000 nM,80.2 to 80.7%,65.4 to 70%,70.1 to 74.8%,,,COc1cc(C)ccc1Oc1nc(Nc2ccc(N3CCOCC3)cc2)ncc1NC(=O)Nc1cc(Cl)cc(Cl)c1,,,,,,,,,
99.6 to 102%,98.3 to 103%,> 100000 nM,100 to 101%,92.3 to 96.8%,95.7 to 97.5%,,,COc1cc(Nc2ncc(NC(=O)c3cc(OC)cc(OC)c3)c(Oc3ccc(C)cc3OC)n2)cc(OC)c1,,,,,,,,,
101 to 106%,103 to 108%,41400 nM,90.1 to 95.8%,60.4 to 61.1%,77.3 to 82%,,,COc1cc(NC(=O)Nc2cnc(Nc3cc(OC)cc(OC)c3)nc2Oc2ccc(C)cc2OC)cc(OC)c1,,,,,,,,,

# — ChEMBL document CHEMBL4145442, “Novel LCK/FMS inhibitors based on phenoxypyrimidine scaffold as potential treatment for inflammatory disorders” (Eur J Med Chem, 2017)
